# EP0499831A2, “Combination of active agents comprising a sydnonimin derivate and a hirudin” (CASSELLA Aktiengesellschaft, priority 1991, dated 1992)
# Legend:
# [1] = system: Coronarthrombose; test: Coronary thrombosis by the method of Folts et al.: frequency of cyclic blood flow variations (CFV's) in the damaged, stenosed left descending coronary artery of anaesthetised pigs; format: in vivo, Hausschweinen
# Description: Bei den tief narkotisierten Tieren wurde der Thorax eröffnet; die linke absteigende Coronararterie wurde freipräpariert und mit einem elektromagnetischen Blutströmungsmeßkopf versehen. Distal des Meßkopfes wurde das Coronargefäß durch kurzes (1 s) Quetschen mit einer Gefäßklemme geschädigt. Auf diese Stelle wurde ein Plastikkonstriktor (innerer Durchmesser 1.7 - 2.8 mm, Länge 2 mm) gesetzt, der das Gefäß stenosiert. […] Die Thromben wurden durch Bestimmung der Frequenz (Anzahl pro 60 min) der zyklischen Blutströmungsveränderungen quantifiziert. […] 0.1 mg/kg Molsidomin i.v. zusammen mit 0.1 mg/kg r-Hirudin i.v., gefolgt von 0.1 mg/kg·60 min r-Hirudin - Infusion.
# Der Versuch wurde 1 Stunde nach Ende der Infusion bzw. 2 Stunden nach Bolusinjektion der Substanzen beendet. Die Frequenzen der zyklischen Blutströmungsveränderungen in der Stunde vor und in der ersten und zweiten Stunde nach Injektion der Prüfsubstanzen wurden für jede Versuchsgruppe gemittelt. Die mittleren Frequenzen der Zyklen vor und nach Substanzverabreichung wurden statistisch miteinander verglichen (Student-t-Test für verbundene Stichproben). Ein p - Wert von < 0.05 galt als signifikanter Unterschied.
# [2] = Systolic and diastolic peripheral arterial blood pressure measured in the same animals; format: in vivo, Hausschweinen; details: Molsidomin 0.1 mg/kg i.v. alone (Gruppe 1) or with r-Hirudin total 0.2 mg/kg i.v. (Gruppe 3)
# Excerpt: Diese Wirkung wurde in folgendem Test ermittelt: Bei männlichen, ca. 4 Monate alten Hausschweinen wurde eine Coronarthrombose nach der Methode von Folts et al (Circulation 1976, 54; 365 - 70) erzeugt. Bei den tief narkotisierten Tieren wurde der Thorax eröffnet; die linke absteigende Coronararterie wurde freipräpariert und mit einem elektromagnetischen Blutströmungsmeßkopf versehen. Distal des Meßkopfes wurde das Coronargefäß durch kurzes (1 s) Quetschen mit einer Gefäßklemme geschädigt. Auf diese Stelle wurde ein Plastikkonstriktor (innerer Durchmesser 1.7 - 2.8 mm, Länge 2 mm) gesetzt, der das Gefäß stenosiert. Diese Versuchsbedingungen führten zum Auftreten regelmäßiger zyklischer Blutströmungsveränderungen (CFV's), verursacht durch die wiederholte Bildung und Embolisierung von Thromben an der geschädigten stenosierten Stelle. Die Thromben wurden durch Bestimmung der Frequenz (Anzahl pro 60 min) der zyklischen Blutströmungsveränderungen quantifiziert. […]
compound,measurement,setting,value
"CCOC(=O)[N-]c1cn(N2CCOCC2)n[o+]1 [Molsidomin, N-Ethoxycarbonyl-3-morpholino-sydnonimin]",Anzahl thrombotischer Flowzyklen (n/60 min) 1. Stunde nach Substanzinjektion,"[1]; 1st hour after injection, Molsidomin 0.1 mg/kg i.v. bolus, r-Hirudin total 0.2 mg/kg (0.1 mg/kg i.v. bolus + i.v. infusion over 60 min), combination: both, n=6",19 ± 3 n/60 min
same,Anzahl thrombotischer Flowzyklen (n/60 min) 1. Stunde Vorphase,"[1]; baseline hour before substance injection, mean of group, n=6",16 ± 2 n/60 min
same,antithrombotische Wirkung der Einzeldosierungen,"[1]; preliminary experiments (Vorversuche), single doses: Molsidomin 0.1 mg/kg i.v., r-Hirudin total 0.2 mg/kg i.v.",gerade nicht antithrombotisch wirkend
same,Senkung des diastolischen Blutdrucks,[2]; decrease not significant,10 ± 5 mm Hg
same,Senkung des systolischen Blutdrucks,"[2]; maximal decrease, p < 0.05",18 ± 5 mm Hg
